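96-well plates; 48 h exposure; 5 concentrations. Endpoints by linear interpolation between flanking doses. Not reached: highest tested concentration assigned. GI50 is the concentration that inhibits growth by half. TGI marks complete inhibition of growth.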
Columns and labels:
Assay in all cases: inhibition of tumour cell growth, NCI panel, 48 h
786-0 renal = test system: 786-0 renal
A498 renal = test system: A498 renal
ACHN renal = test system: ACHN renal
BT-549 breast = test system: BT-549 breast
CAKI-1 renal = test system: CAKI-1 renal
CCRF-CEM leukemia = test system: CCRF-CEM leukemia
DU-145 prostate = test system: DU-145 prostate
EKVX NSCLC = test system: EKVX NSCLC
HCC-2998 colon = test system: HCC-2998 colon
HCT-116 colon = test system: HCT-116 colon
HCT-15 colon = test system: HCT-15 colon
HL-60(TB) leukemia = test system: HL-60(TB) leukemia
HOP-92 NSCLC = test system: HOP-92 NSCLC
HS 578T breast = test system: HS 578T breast
IGROV1 ovarian = test system: IGROV1 ovarian
K-562 leukemia = test system: K-562 leukemia
KM12 colon = test system: KM12 colon
LOX IMVI melanoma = test system: LOX IMVI melanoma
M14 melanoma = test system: M14 melanoma
MALME-3M melanoma = test system: MALME-3M melanoma
MCF7 breast = test system: MCF7 breast
MDA-MB-231 breast = test system: MDA-MB-231 breast
MDA-MB-435 = test system: MDA-MB-435
MOLT-4 leukemia = test system: MOLT-4 leukemia
NCI-H23 lung = test system: NCI-H23 lung
NCI-H460 lung = test system: NCI-H460 lung

**Q.** What does the source list for `CN1CCN(CCOc2ccc(-c3cnc4c(-c5cccc(F)c5F)cnn4c3)cc2)CC1`?
**A.** GI50 (786-0 renal): 1.63 µM; TGI (786-0 renal): 3.07 µM; GI50 (A498 renal): 5.41 µM; TGI (A498 renal): 19.7 µM; GI50 (ACHN renal): 1.62 µM; TGI (ACHN renal): 2.97 µM; GI50 (BT-549 breast): 1.57 µM; TGI (BT-549 breast): 3.15 µM; GI50 (CAKI-1 renal): 1.52 µM; TGI (CAKI-1 renal): 2.91 µM; GI50 (CCRF-CEM leukemia): 1.55 µM; TGI (CCRF-CEM leukemia): 3.81 µM; GI50 (DU-145 prostate): 1.69 µM; TGI (DU-145 prostate): 3.44 µM; GI50 (EKVX NSCLC): 1.59 µM; TGI (EKVX NSCLC): 3.75 µM; GI50 (HCC-2998 colon): 11.7 µM; TGI (HCC-2998 colon): 24.7 µM; GI50 (HCT-116 colon): 1.66 µM; TGI (HCT-116 colon): 3.04 µM; GI50 (HCT-15 colon): 1.48 µM; TGI (HCT-15 colon): 2.91 µM; GI50 (HL-60(TB) leukemia): 1.91 µM; TGI (HL-60(TB) leukemia): 3.79 µM; GI50 (HOP-92 NSCLC): 4.14 µM; TGI (HOP-92 NSCLC): 26.4 µM; GI50 (HS 578T breast): 1.91 µM; TGI (HS 578T breast): 4.74 µM; GI50 (IGROV1 ovarian): 1.61 µM; TGI (IGROV1 ovarian): 3.27 µM; GI50 (K-562 leukemia): 1.66 µM; TGI (K-562 leukemia): 3.53 µM; GI50 (KM12 colon): 1.72 µM; TGI (KM12 colon): 3.39 µM; GI50 (LOX IMVI melanoma): 1.8 µM; TGI (LOX IMVI melanoma): 3.34 µM; GI50 (M14 melanoma): 1.71 µM; TGI (M14 melanoma): 3.2 µM; GI50 (MALME-3M melanoma): 1.53 µM; TGI (MALME-3M melanoma): 3.01 µM; GI50 (MCF7 breast): 1.32 µM; TGI (MCF7 breast): 2.95 µM; GI50 (MDA-MB-231 breast): 1.6 µM; TGI (MDA-MB-231 breast): 3.36 µM; GI50 (MDA-MB-435): 1.68 µM; TGI (MDA-MB-435): 3.07 µM; GI50 (MOLT-4 leukemia): 1.6 µM; TGI (MOLT-4 leukemia): 3.53 µM; GI50 (NCI-H23 lung): 1.7 µM; TGI (NCI-H23 lung): 3.33 µM; GI50 (NCI-H460 lung): 1.67 µM
